Assay [1] concerns the target T1, recombinant human Meningioma Expressed Antigen 5 (MGEA5), also referred to as O-GlcNAcase (OGA) (Homo sapiens, UniProt O60502).
T1 construct: Full length OGA enzyme was purchased at OriGene (cat # TP322411); purchased OriGene TP322411
T1 sequence (O60502 1-916): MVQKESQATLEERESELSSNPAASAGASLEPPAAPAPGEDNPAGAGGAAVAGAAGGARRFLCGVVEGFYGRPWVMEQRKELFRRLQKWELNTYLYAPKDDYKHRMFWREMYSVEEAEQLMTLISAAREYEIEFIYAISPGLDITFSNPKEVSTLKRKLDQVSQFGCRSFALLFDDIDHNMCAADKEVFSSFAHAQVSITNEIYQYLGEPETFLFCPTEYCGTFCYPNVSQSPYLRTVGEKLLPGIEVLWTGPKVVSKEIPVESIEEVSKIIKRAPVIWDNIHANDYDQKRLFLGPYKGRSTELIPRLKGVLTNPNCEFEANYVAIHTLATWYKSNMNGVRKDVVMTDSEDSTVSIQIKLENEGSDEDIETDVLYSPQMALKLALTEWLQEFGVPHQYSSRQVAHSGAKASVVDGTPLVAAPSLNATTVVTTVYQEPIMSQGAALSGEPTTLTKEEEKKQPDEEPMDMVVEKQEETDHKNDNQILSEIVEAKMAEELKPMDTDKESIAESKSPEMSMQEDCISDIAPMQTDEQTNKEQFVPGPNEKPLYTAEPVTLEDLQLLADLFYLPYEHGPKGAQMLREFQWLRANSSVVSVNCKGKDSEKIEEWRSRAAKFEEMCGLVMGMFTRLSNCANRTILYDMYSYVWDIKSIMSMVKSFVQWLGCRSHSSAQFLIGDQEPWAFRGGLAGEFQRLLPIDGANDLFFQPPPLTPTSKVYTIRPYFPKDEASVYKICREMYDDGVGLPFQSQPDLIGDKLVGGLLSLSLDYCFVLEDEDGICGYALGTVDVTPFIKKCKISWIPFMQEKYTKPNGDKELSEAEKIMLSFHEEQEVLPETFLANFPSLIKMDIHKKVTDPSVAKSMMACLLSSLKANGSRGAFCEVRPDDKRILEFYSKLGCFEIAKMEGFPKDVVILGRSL
The assay is described as follows: OGA biochemical assay: inhibition of FM-GlcNAc hydrolysis, fluorescence (protocol A 10 nM OGA, 1 h; protocol B 2 nM OGA, 6 h). The source says: The assay is based on the inhibition of the hydrolysis of fluorescein mono-B-D-N-Acetyl-Glucosamine (FM-GlcNAc) (Mariappa et al. 2015, Biochem J 470:255) by the recombinant human Meningioma Expressed Antigen 5 (MGEA5), also referred to as 0-GlcNAcase (OGA). The hydrolysis FM-GlcNAc (Marker Gene technologies, cat # M1485) results in the formation of β-D-N-glucosamineacetate and fluorescein. The fluorescence of the latter can be measured at excitation wavelength 485 nm and emission wavelength 538 nm. An increase in enzyme activity results in an increase in fluorescence signal. Full length OGA enzyme was purchased at OriGene (cat # TP322411). The enzyme was stored in 25 mM Tris.HCl, pH 7.3, 100 mM glycine, 10% glycerol at −20° C. Thiamet G and GlcNAcStatin were tested as reference compounds (Yuzwa et al. 2008 Nature Chemical Biology 4:483; Yuzwa et al. 2012 Nature Chemical Biology 8:393). The assay was performed in 200 mM Citrate/phosphate buffer supplemented with 0.005% Tween-20. 35.6 g Na2HPO4 2 H2O (Sigma, # C0759) were dissolved in 1 L water to obtain a 200 mM solution. 19.2 g citric acid (Merck, #1.06580) was dissolved in 1 L water to obtain a 100 mM solution. pH of the sodiumphosphate solution was adjusted with the citric acid solution to 7.2. The buffer to stop the reaction consists of a 500 mM Carbonate buffer, pH 11.0. 734 mg FM-GlcNAc were dissolved in 5.48 mL DMSO to obtain a 250 mM solution and was stored at −20° C. OGA was used at a 10 nM (protocol A) or 2 nM (protocol B) concentration and FM-GlcNAc at a 100 uM final concentration. Dilutions were prepared in assay buffer.
50 nl of a compound dissolved in DMSO was dispensed on Black Proxiplate™ 384 Plus Assay plates (Perkin Elmer, #6008269) and 3 μl fl-OGA enzyme mix added subsequently. Plates were pre-incubated for 60 min at room temperature and then 2 μl FM-GlcNAc substrate mix added. […] Plates were briefly centrifuged for 1 min at 1000 rpm and incubate at room temperature for 1 h (10 nM OGA, protocol A) or 6 h (2 nM OGA, protocol B). To stop the reaction 5 μl STOP buffer were added and plates centrifuge again 1 min at 1000 rpm. Fluorescence was quantified in the Thermo Scientific Fluoroskan Ascent or the PerkinElmer EnVision with excitation wavelength 485 nm and emission wavelength 538 nm.
For analysis a best-fit curve is fitted by a minimum sum of squares method. From this an IC50 value and Hill coefficient was obtained. High control (no inhibitor) and low control (saturating concentrations of standard inhibitor) were used to define the minimum and maximum values.

Assay [2] concerns the target T2, OGA (Homo sapiens, UniProt O60502).
T2 construct: endogenous in cells; host or cells: HEK293 cells inducible for P301L mutant human Tau (2N4R)
T2 sequence (O60502 1-916): T1 sequence (O60502 1-916)
The assay is described as follows: OGA cellular assay: ICC detection of O-GlcNAcylated proteins in HEK293 cells inducible for P301L mutant human Tau. The assay is classed as cell-based. Particulars: 6 hours incubation; for EC50: read-out: Cellular hOGA, pEC50 (converted). Here is the method: HEK293 cells inducible for P301L mutant human Tau (isoform 2N4R) were established at Janssen. Thiamet-G was used for both plate validation (high control) and as reference compound (reference EC50 assay validation). OGA inhibition is evaluated through the immunocytochemical (ICC) detection of O-GlcNAcylated proteins by the use of a monoclonal antibody (CTD110.6; Cell Signaling, #9875) detecting O-GlcNAcylated residues as previously described (Dorfmueller et al. 2010 Chemistry & biology, 17:1250).
Inhibition of OGA will result in an increase of 0-GlcNAcylated protein levels resulting in an increased signal in the experiment. Cell nuclei are stained with Hoechst to give a cell culture quality control and a rough estimate of immediate compounds toxicity, if any. ICC pictures are imaged with a Perkin Elmer Opera Phenix plate microscope and quantified with the provided software Perkin Elmer Harmony 4.1.
Cells were propagated in DMEM high Glucose (Sigma, #D5796) following standard procedures. 2 days before the cell assay cells are split, counted and seeded in Poly-D-Lysine (PDL) coated 96-wells (Greiner, #655946) plate at a cell density of 12,000 cells per cm^2 (4,000 cells per well) in 100 μl of Assay Medium (Low Glucose medium is used to reduce basal levels of GlcNAcylation) (Park et al. 2014 The Journal of biological chemistry 289:13519). At the day of compound test medium from assay plates was removed and replenished with 90 μl of fresh Assay Medium. 10 μl of compounds at a 10fold final concentration were added to the wells. Plates were centrifuged shortly before incubation in the cell incubator for 6 hours. DMSO concentration was set to 0.2%. Medium is discarded by applying vacuum. For staining of cells medium was removed and cells washed once with 100 μl D-PBS (Sigma, #D8537). From next step onwards unless other stated assay volume was always 50 μl and incubation was performed without agitation and at room temperature. Cells were fixed in 50 μl of a 4% paraformaldehyde (PFA, Alpha aesar, #043368) PBS solution for 15 minutes at room temperature. […] Before analysis samples were washed 2 times manually for 5 minutes in ICC base buffer.
Imaging is performed using Perkin Elmer Phenix Opera using a water 20× objective and recording 9 fields per well. Intensity readout at 488 nm is used as a measure of O-GlcNAcylation level of total proteins in wells. To assess potential toxicity of compounds nuclei were counted using the Hoechst staining. IC50-values are calculated using parametric non-linear regression model fitting. As a maximum inhibition Thiamet G at a 200 uM concentration is present on each plate. In addition, a concentration response of Thiamet G is calculated on each plate.

[3] abbreviates: Enzymatic protocol A (10 nM OGA, 1 h), read-out: Enzymatic Emax (%).
Where [4] appears, read: Enzymatic protocol A (10 nM OGA, 1 h), read-out: Enzymatic hOGA, pIC50 (converted).
Where [5] appears, read: Enzymatic protocol B (2 nM OGA, 6 h), read-out: Enzymatic Emax (%).
Setting [6] is: Enzymatic protocol B (2 nM OGA, 6 h), read-out: Enzymatic hOGA, pIC50 (converted).
Where [7] appears, read: comparative table, protocol not given, read-out: Emax (OGA inhibitory activity, comparison with 1,4-disubstituted piperidine comparator).
Where [8] appears, read: comparative table, protocol not given, read-out: pIC50 (OGA inhibitory activity, comparison with 1,4-disubstituted piperidine comparator) (converted).

Read-outs that look alike come from different tables or passages of the source.

As usually defined, the Emax is the greatest response seen or fitted, relative to the assay's reference.

For `CC(=O)Nc1ncc(CN2CC[C@@H](C)[C@H](c3cc4ncccc4[nH]3)C2)s1` (racemic) [Compound 22], the Emax was found to be 101% in assay [1] (setting [3]), 102% in assay [1] (setting [5]) and 114% in assay [2]. The values for the IC50 in assay [1] (setting [4]) and in assay [1] (setting [6]) were 41.7 nM and 22.4 nM, respectively. For the same molecule, in assay [2], the EC50 is 20.9 nM.
In the case of `CC(c1ccc2c(c1)OCCO2)N1CCCC(c2cc3ncccc3[nH]2)C1` (racemic) [Compound 33], the Emax in assay [1] (setting [5]) worked out at 98.6%. Besides, the IC50 in assay [1] (setting [6]) is 55 nM. Besides, in assay [2], the Emax came to 107% and the EC50 was 417 nM.
As for `CC(=O)Nc1ncc(S(=O)(=O)N2CCCC(c3cc4ncccc4[nH]3)C2)s1` (single isomer, unassigned) [Compound 4], the figures for the Emax in assay [1] (setting [3]), in assay [1] (setting [5]) and in assay [2] were 99.7%, 99.4% and 44.3%, respectively. Further, the IC50 in assay [1] (setting [4]) is 178 nM; in assay [1] (setting [6]), 186 nM. The EC50 in assay [2] was above 10000 nM.
As for `CC(=O)Nc1ncc(CN2CCCC(c3cc4ncccc4[nH]3)C2)s1` (single isomer, unassigned) [Compound 6], the results for the maximal response (Emax) in assay [1] (setting [3]), in assay [1] (setting [5]) and in assay [2] were 92.3%, 79.1% and 66.6%, respectively. Moreover, the IC50 was 1660 nM in assay [1] (setting [4]) and 2690 nM in assay [1] (setting [6]). In addition, the EC50 in assay [2] was 3630 nM.
For `CC(=O)Nc1ncc(CN2CCC[C@H](c3cc4ncccc4[nH]3)C2)s1` (single isomer, unassigned) [Compound 7], the Emax in assay [1] (setting [3]) was 104%; in assay [1] (setting [5]), 100%; in assay [1] (setting [7]), 104%; in assay [2] it was 114%. Besides, the IC50 is 18.2 nM in assay [1] (setting [4]), 25.1 nM in assay [1] (setting [6]) and 18.2 nM in assay [1] (setting [8]). Also, the “OGA inhibitory activity compared with comparator” value in assay [1] (greater than the corresponding 1,4-disubstituted piperidine compound (comparator)) is recorded as ~1 order of magnitude. For the same molecule, in assay [2], the EC50 is 21.4 nM.
In the case of `CC(c1ccc2c(c1)OCO2)N1CCCC(c2cc3ncccc3[nH]2)C1` (single isomer, unassigned) [Compound 31], the “Enzymatic Emax (%)” value in assay [1] (Enzymatic protocol B (2 nM OGA, 6 h)) was found to be 100.4%. Moreover, the IC50 in assay [1] (setting [6]) was 26.9 nM. Further, in assay [2], the Emax is 95.8% and the EC50 is 195 nM.
In the case of `CC(=O)Nc1ncc(CN2CCCC(c3cc4cccnc4[nH]3)C2)s1` (centres unmarked) [Compound 8], the Emax in assay [1] (setting [3]) is 101%; in assay [1] (setting [5]) it was 100%; in assay [2], 113%. Moreover, the results for the IC50 in assay [1] (setting [4]) and in assay [1] (setting [6]) were 112 nM and 105 nM, respectively. In addition, in assay [2], the EC50 is 148 nM.
For `CC(=O)Nc1ncc(CN2CCCC(c3cc4ccncc4[nH]3)C2)s1` (centres unmarked) [Compound 11], the values for the Emax in assay [1] (setting [5]) and in assay [2] were 100% and 103%, respectively. The IC50 in assay [1] (setting [6]) is 74.1 nM. Moreover, in assay [2], the EC50 was 18.2 nM.
The matching figures for `CC(=O)Nc1ncc(CN2CCCC(c3cc4cnccc4[nH]3)C2)s1` (centres unmarked) [Compound 12]: 124%, 120%, 42.7 nM and 17.8 nM.
On to `CC(=O)Nc1ncc(CN2CCCC(c3nc4ncccc4n3C)C2)s1` (centres unmarked) [Compound 20], for which the Emax in assay [1] (setting [3]) was 98%. For the same molecule, the IC50 in assay [1] (setting [4]) is 155 nM. In addition, in assay [2], the Emax was 95.6% and the EC50 was 2630 nM.
Consider `CC(=O)Nc1ncc(CN2CCCC(c3nc4cccnc4n3C)C2)s1` (centres unmarked) [Compound 21], for which, in assay [1] (setting [3]), the Emax was found to be 101%. Moreover, the IC50 in assay [1] (setting [4]) is 302 nM. Besides, in assay [2], the Emax was determined as 101% and the EC50 was 2630 nM.
Turning to `CC(=O)Nc1ncc(CN2CCC(Cc3cc4ncccc4[nH]3)C2)s1` (centres unmarked) [Compound 24], the Emax in assay [1] (setting [5]) came out at 99.8%. The IC50 in assay [1] (setting [6]) was 2.14 nM. In assay [2], the Emax is 98% and the EC50 was 7.94 nM.
The matching figures for `CC(=O)Nc1ncc(CN2CCC(Cc3cc4ncccc4n3C)C2)s1` (centres unmarked) [Compound 25]: 102%, 1.51 nM, 121% and 9.33 nM.
Regarding `CC(=O)Nc1ncc(CN2CCCC(Cc3cc4ncccc4n3C)C2)s1` (centres unmarked) [Compound 26], the Emax in assay [1] (setting [5]) stood at 101%. Moreover, the IC50 in assay [1] (setting [6]) is 2.4 nM. Moreover, in assay [2], the Emax amounted to 118% and the EC50 is below 4.57 nM.
Turning to `CC(=O)Nc1ncc(CN2CCC(c3cc4ncccc4[nH]3)CC2)s1` [comparator, reference compound], in assay [1] (setting [7]), the Emax is 103%. Also, in assay [1] (setting [8]), the IC50 was 224 nM.

The values above are taken from patent US20190359609A1, “BICYCLIC OGA INHIBITOR COMPOUNDS” (Janssen Pharmaceutica NV, priority 2016, published 2019).
